Experimental data taken from PubChem BioAssay (NCI).
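Protocol summary: plate cells (96-well), add compound at 5 concentrations, incubate 48 h, interpolate endpoints linearly. The concentration for full growth arrest is given as TGI.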

Assays:
Assay in all cases: inhibition of tumour cell growth, NCI panel, 48 h
[1] = tested on: HCC-2998 colon
[2] = tested on: UO-31 renal
[3] = tested on: DLD-1 colon
[4] = tested on: SNB-78 CNS
[5] = tested on: IGROV1 ovarian
[6] = tested on: CCRF-CEM leukemia
[7] = tested on: DMS 114 small cell lung
[8] = tested on: M19-MEL melanoma
[9] = tested on: ACHN renal
[10] = tested on: U251 CNS
[11] = tested on: SK-MEL-5 melanoma
[12] = tested on: NCI-H460 lung
[13] = tested on: EKVX NSCLC
[14] = tested on: SNB-19 CNS
[15] = tested on: HL-60(TB) leukemia
[16] = tested on: OVCAR-5 ovarian
[17] = tested on: LXFL 529 NSCLC
[18] = tested on: K-562 leukemia
[19] = tested on: NCI-H23 lung
[20] = tested on: SK-OV-3 ovarian
[21] = tested on: TK-10 renal
[22] = tested on: SK-MEL-2 melanoma
[23] = tested on: NCI-H522 lung
[24] = tested on: SF-295 CNS
[25] = tested on: SK-MEL-28 melanoma
[26] = tested on: UACC-257 melanoma
[27] = tested on: HCT-116 colon
[28] = tested on: KM12 colon
[29] = tested on: SN12C renal
[30] = tested on: MOLT-4 leukemia
[31] = tested on: UACC-62 melanoma
[32] = tested on: HCT-15 colon
[33] = tested on: KM20L2 colon
[34] = tested on: A549 NSCLC
[35] = tested on: MALME-3M melanoma
[36] = tested on: SF-539 CNS
[37] = tested on: DMS 273 small cell lung
[38] = tested on: HOP-18 NSCLC
[39] = tested on: SF-268 CNS
[40] = tested on: LOX IMVI melanoma
[41] = tested on: SW-620 colon
[42] = tested on: RPMI-8226 leukemia
[43] = tested on: RXF 393 renal
[44] = tested on: OVCAR-8 ovarian
[45] = tested on: COLO 205 colon
[46] = tested on: SR leukemia
[47] = tested on: 786-0 renal
[48] = tested on: HOP-62 NSCLC
[49] = tested on: SNB-75 CNS
[50] = tested on: HT29 colon
[51] = tested on: M14 melanoma
[52] = tested on: OVCAR-3 ovarian
[53] = tested on: OVCAR-4 ovarian
[54] = tested on: RXF-631 renal
[55] = tested on: CAKI-1 renal
[56] = tested on: NCI-H226 lung
[57] = tested on: XF 498 CNS
[58] = tested on: A498 renal
[59] = tested on: HOP-92 NSCLC

Structure (SMILES): O=C1Nc2cccc3ncn(c23)C2=C1CCCC2
- TGI [1]: > 100 µM
- TGI [2]: > 100 µM
- TGI [3]: > 100 µM
- TGI [4]: > 100 µM
- TGI [5]: > 100 µM
- TGI [6]: > 100 µM
- TGI [7]: > 100 µM
- TGI [8]: > 100 µM
- TGI [9]: > 100 µM
- TGI [10]: > 100 µM
- TGI [11]: > 100 µM
- TGI [12]: > 100 µM
- TGI [13]: > 100 µM
- TGI [14]: > 100 µM
- TGI [15]: > 100 µM
- TGI [16]: > 100 µM
- TGI [17]: > 100 µM
- TGI [18]: > 100 µM
- TGI [19]: > 100 µM
- TGI [20]: > 100 µM
- TGI [21]: > 100 µM
- TGI [22]: > 100 µM
- TGI [23]: > 100 µM
- TGI [24]: > 100 µM
- TGI [25]: > 100 µM
- TGI [26]: > 100 µM
- TGI [27]: > 100 µM
- TGI [28]: > 100 µM
- TGI [29]: > 100 µM
- TGI [30]: > 100 µM
- TGI [31]: > 100 µM
- TGI [32]: > 100 µM
- TGI [33]: > 100 µM
- TGI [34]: > 100 µM
- TGI [35]: > 100 µM
- TGI [36]: > 100 µM
- TGI [37]: > 100 µM
- TGI [38]: 83.8 µM
- TGI [39]: > 100 µM
- TGI [40]: > 100 µM
- TGI [41]: > 100 µM
- TGI [42]: > 100 µM
- TGI [43]: > 100 µM
- TGI [44]: > 100 µM
- TGI [45]: > 100 µM
- TGI [46]: > 100 µM
- TGI [47]: > 100 µM

Structure (SMILES): CCOC(=O)/C(C1=N[C@H](C(=O)OCC)CS1)=C(\C)O
- TGI [1]: > 100 µM
- TGI [48]: > 100 µM
- TGI [49]: > 100 µM
- TGI [2]: > 100 µM
- TGI [3]: > 100 µM
- TGI [4]: > 100 µM
- TGI [50]: > 100 µM
- TGI [5]: > 100 µM
- TGI [6]: > 100 µM
- TGI [51]: > 100 µM
- TGI [8]: > 100 µM
- TGI [9]: > 100 µM
- TGI [10]: > 100 µM
- TGI [11]: > 100 µM
- TGI [12]: > 100 µM
- TGI [52]: > 100 µM
- TGI [53]: > 100 µM
- TGI [13]: > 100 µM
- TGI [14]: > 100 µM
- TGI [15]: > 100 µM
- TGI [54]: > 100 µM
- TGI [55]: > 100 µM
- TGI [16]: > 100 µM
- TGI [17]: > 100 µM
- TGI [18]: > 100 µM
- TGI [19]: > 100 µM
- TGI [56]: > 100 µM
- TGI [22]: > 100 µM
- TGI [23]: > 100 µM
- TGI [24]: > 100 µM
- TGI [25]: > 100 µM
- TGI [26]: > 100 µM
- TGI [27]: > 100 µM
- TGI [28]: > 100 µM
- TGI [29]: > 100 µM
- TGI [30]: > 100 µM
- TGI [31]: > 100 µM
- TGI [32]: > 100 µM
- TGI [33]: > 100 µM
- TGI [34]: > 100 µM
- TGI [35]: > 100 µM
- TGI [38]: > 100 µM
- TGI [39]: > 100 µM
- TGI [40]: > 100 µM
- TGI [41]: > 100 µM
- TGI [42]: > 100 µM
- TGI [43]: > 100 µM
- TGI [44]: > 100 µM
- TGI [45]: > 100 µM
- TGI [46]: > 100 µM
- TGI [47]: > 100 µM
- TGI [57]: > 100 µM

Structure (SMILES): CCOP(=O)(OCC)C1C(=O)O[C@H]2CCCC[C@@H]12 (some centres undefined)
- TGI [1]: > 100 µM
- TGI [48]: > 100 µM
- TGI [49]: > 100 µM
- TGI [3]: > 100 µM
- TGI [4]: > 100 µM
- TGI [50]: > 100 µM
- TGI [5]: > 100 µM
- TGI [6]: > 100 µM
- TGI [51]: > 100 µM
- TGI [7]: > 100 µM
- TGI [8]: > 100 µM
- TGI [9]: > 100 µM
- TGI [10]: > 100 µM
- TGI [11]: > 100 µM
- TGI [58]: > 100 µM
- TGI [12]: > 100 µM
- TGI [52]: > 100 µM
- TGI [53]: > 100 µM
- TGI [13]: > 100 µM
- TGI [14]: > 100 µM
- TGI [55]: > 100 µM
- TGI [16]: > 100 µM
- TGI [17]: > 100 µM
- TGI [18]: > 100 µM
- TGI [19]: > 100 µM
- TGI [20]: > 100 µM
- TGI [21]: > 100 µM
- TGI [22]: > 100 µM
- TGI [24]: > 100 µM
- TGI [25]: > 100 µM
- TGI [26]: > 100 µM
- TGI [27]: > 100 µM
- TGI [28]: > 100 µM
- TGI [29]: > 100 µM
- TGI [30]: > 100 µM
- TGI [31]: > 100 µM
- TGI [32]: > 100 µM
- TGI [33]: > 100 µM
- TGI [34]: > 100 µM
- TGI [35]: > 100 µM
- TGI [36]: > 100 µM
- TGI [37]: > 100 µM
- TGI [38]: > 100 µM
- TGI [39]: > 100 µM
- TGI [40]: > 100 µM
- TGI [41]: > 100 µM
- TGI [42]: > 100 µM
- TGI [43]: > 100 µM
- TGI [44]: > 100 µM
- TGI [45]: > 100 µM
- TGI [47]: > 100 µM
- TGI [57]: > 100 µM

Structure (SMILES): COc1ccc(/C=C2/CCCC/C2=N/O)cc1
- TGI [1]: > 100 µM
- TGI [48]: > 100 µM
- TGI [49]: > 100 µM
- TGI [2]: > 100 µM
- TGI [3]: > 100 µM
- TGI [4]: > 100 µM
- TGI [50]: > 100 µM
- TGI [5]: > 100 µM
- TGI [6]: > 100 µM
- TGI [51]: > 100 µM
- TGI [7]: > 100 µM
- TGI [8]: > 100 µM
- TGI [9]: > 100 µM
- TGI [10]: > 100 µM
- TGI [58]: > 100 µM
- TGI [12]: > 100 µM
- TGI [52]: > 100 µM
- TGI [53]: > 100 µM
- TGI [13]: > 100 µM
- TGI [14]: > 100 µM
- TGI [15]: > 100 µM
- TGI [54]: > 100 µM
- TGI [16]: > 100 µM
- TGI [17]: > 100 µM
- TGI [19]: > 100 µM
- TGI [20]: > 100 µM
- TGI [21]: > 100 µM
- TGI [22]: > 100 µM
- TGI [23]: > 100 µM
- TGI [24]: > 100 µM
- TGI [59]: > 100 µM
- TGI [25]: > 100 µM
- TGI [26]: > 100 µM
- TGI [27]: > 100 µM
- TGI [28]: > 100 µM
- TGI [29]: > 100 µM
- TGI [30]: > 100 µM
- TGI [31]: > 100 µM
- TGI [32]: > 100 µM
- TGI [33]: > 100 µM
- TGI [34]: > 100 µM
- TGI [35]: > 100 µM
- TGI [36]: > 100 µM
- TGI [37]: > 100 µM
- TGI [38]: > 100 µM
- TGI [39]: > 100 µM
- TGI [40]: > 100 µM
- TGI [41]: > 100 µM
- TGI [42]: > 100 µM
- TGI [43]: > 100 µM
- TGI [44]: > 100 µM
- TGI [45]: > 100 µM
- TGI [47]: > 100 µM
